Read-outs that look alike come from different tables or passages of the source.
Legend:
[1] = target: CDK1/Cyclin E1 (Homo sapiens, UniProt P06493); assay: NanoBRET live-cell target engagement, CDK1-NanoLuc/Cyclin E1 in HEK-293; type: binding; conditions: CDK1/E1, 10µM
[2] = target: CDK2/Cyclin E1 (Homo sapiens, UniProt P24941); assay: NanoBRET live-cell target engagement, CDK2-NanoLuc/Cyclin E1 in HEK-293; type: binding; conditions: CDK2/E1, 10µM
[3] = target: CDK3/Cyclin E1 (Homo sapiens, UniProt Q00526); assay: NanoBRET live-cell target engagement, CDK3-NanoLuc/Cyclin E1 in HEK-293; type: binding; conditions: CDK3/E1, 10µM
[4] = target: CDK4/Cyclin D1 (Homo sapiens, UniProt P11802); assay: NanoBRET live-cell target engagement, NanoLuc-CDK4/Cyclin D1 in HEK-293; type: binding; conditions: CDK4/D1, 10µM
[5] = target: CDK5/CDK5R1 (Homo sapiens, UniProt Q00535); assay: NanoBRET live-cell target engagement, CDK5-NanoLuc/CDK5R1 in HEK-293; type: binding; conditions: CDK5/CDK5R1, 10µM
[6] = target: CDK6/Cyclin D1 (Homo sapiens, UniProt Q00534); assay: NanoBRET live-cell target engagement, NanoLuc-CDK6/Cyclin D1 in HEK-293; type: binding; conditions: CDK6/D1, 10µM
[7] = target: CDK7 (Homo sapiens, UniProt P50613); assay: NanoBRET live-cell target engagement, NanoLuc-CDK7 in HEK-293; type: binding
[8] = target: CDK8/Cyclin C (Homo sapiens, UniProt P49336); assay: NanoBRET live-cell target engagement, NanoLuc-CDK8/Cyclin C in HEK-293; type: binding; conditions: CDK8/C; for inhibition at 10 µM: read-out: Inhibition at 10µM (%)
[9] = target: CDK9/Cyclin K (Homo sapiens, UniProt P50750); assay: NanoBRET live-cell target engagement, NanoLuc-CDK9/Cyclin K in HEK-293; type: binding; conditions: CDK9/K, 10µM
[10] = target: T1, CDK11A/Cyclin L2 (Homo sapiens, UniProt Q9UQ88); assay: NanoBRET live-cell target engagement, CDK11A-NanoLuc/Cyclin L2 in HEK-293; type: binding; conditions: CDK11a/L2; for inhibition at 10 µM: read-out: Inhibition at 10µM (%)
T1 sequence (Q9UQ88 1-783): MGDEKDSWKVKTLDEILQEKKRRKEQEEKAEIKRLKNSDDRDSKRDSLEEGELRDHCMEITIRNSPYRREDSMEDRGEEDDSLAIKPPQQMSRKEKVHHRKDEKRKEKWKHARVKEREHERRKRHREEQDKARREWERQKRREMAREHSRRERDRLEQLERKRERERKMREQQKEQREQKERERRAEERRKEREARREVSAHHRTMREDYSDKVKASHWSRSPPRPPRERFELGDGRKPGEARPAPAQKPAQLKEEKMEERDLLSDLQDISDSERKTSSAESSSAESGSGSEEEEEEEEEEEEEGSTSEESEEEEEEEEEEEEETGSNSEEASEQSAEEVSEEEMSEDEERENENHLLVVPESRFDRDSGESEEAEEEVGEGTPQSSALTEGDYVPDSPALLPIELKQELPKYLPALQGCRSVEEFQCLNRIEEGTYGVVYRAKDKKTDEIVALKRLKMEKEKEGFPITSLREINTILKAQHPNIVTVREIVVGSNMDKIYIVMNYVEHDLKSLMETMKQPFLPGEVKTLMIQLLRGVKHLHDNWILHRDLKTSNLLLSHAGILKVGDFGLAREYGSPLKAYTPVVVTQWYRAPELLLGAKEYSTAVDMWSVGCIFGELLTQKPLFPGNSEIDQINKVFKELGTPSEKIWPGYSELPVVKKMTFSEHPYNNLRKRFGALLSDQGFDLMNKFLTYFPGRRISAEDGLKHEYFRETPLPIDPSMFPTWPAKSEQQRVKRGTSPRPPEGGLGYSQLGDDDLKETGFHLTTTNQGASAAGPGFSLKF

[11] = target: CDK11B/Cyclin L2 (Homo sapiens, UniProt P21127); assay: NanoBRET live-cell target engagement, CDK11B-NanoLuc/Cyclin L2 in HEK-293; type: binding; conditions: CDK11b/L2; for inhibition at 10 µM: read-out: Inhibition at 10µM (%)
[12] = target: CDK12/Cyclin K (Homo sapiens, UniProt Q9NYV4); assay: NanoBRET live-cell target engagement, CDK12-NanoLuc/Cyclin K in HEK-293; type: binding; conditions: CDK12/K, 10µM
[13] = target: CDK13/Cyclin K (Homo sapiens, UniProt Q14004); assay: NanoBRET live-cell target engagement, CDK13-NanoLuc/Cyclin K in HEK-293; type: binding; conditions: CDK13/K, 10µM
[14] = target: CDK14/Cyclin Y (Homo sapiens, UniProt O94921); assay: NanoBRET live-cell target engagement, CDK14-NanoLuc/Cyclin Y in HEK-293; type: binding; conditions: CDK14/Y, 10µM
[15] = target: CDK15/Cyclin Y (Homo sapiens, UniProt Q96Q40); assay: NanoBRET live-cell target engagement, NanoLuc-CDK15/Cyclin Y in HEK-293; type: binding; conditions: CDK15/Y, 10µM
[16] = target: CDK16/Cyclin Y (Homo sapiens, UniProt Q00536); assay: NanoBRET live-cell target engagement, CDK16-NanoLuc/Cyclin Y in HEK-293; type: binding; conditions: CDK16/Y; 10µM
[17] = target: CDK17/Cyclin Y (Homo sapiens, UniProt Q00537); assay: NanoBRET live-cell target engagement, CDK17-NanoLuc/Cyclin Y in HEK-293; type: binding; conditions: CDK17/Y, 10µM
[18] = target: CDK18/Cyclin Y (Homo sapiens, UniProt Q07002); assay: NanoBRET live-cell target engagement, CDK18-NanoLuc/Cyclin Y in HEK-293; type: binding; conditions: CDK18/Y, 10µM
[19] = target: CDK20/Cyclin H (Homo sapiens, UniProt Q8IZL9); assay: NanoBRET live-cell target engagement, NanoLuc-CDK20/Cyclin H in HEK-293; type: binding; conditions: for inhibition at 10 µM: read-out: Inhibition at 10µM (%), CDK20/H
[20] = test system: all 21 human CDKs; assay: Live-cell selectivity profile across all 21 CDK/cyclin complexes in HEK-293; type: binding; conditions: live cells
[21] = target: CDK19/Cyclin C (Homo sapiens, UniProt Q9BWU1); assay: NanoBRET live-cell target engagement, NanoLuc-CDK19/Cyclin C in HEK-293; conditions: for inhibition at 10 µM: read-out: Inhibition at 10µM (%), CDK19/C
[22] = target: T2, CDK10/Cyclin L2 (Homo sapiens, UniProt Q15131); assay: NanoBRET live-cell target engagement, CDK10-NanoLuc/Cyclin L2 in HEK-293; conditions: for IC50: n=1; for inhibition at 10 µM: read-out: Inhibition at 10µM (%), CDK10/L2
[23] = target: T2, CDK10/Cyclin L2; assay: cell-based

Sequence of CDK20/Cyclin H (Q8IZL9 whole entry): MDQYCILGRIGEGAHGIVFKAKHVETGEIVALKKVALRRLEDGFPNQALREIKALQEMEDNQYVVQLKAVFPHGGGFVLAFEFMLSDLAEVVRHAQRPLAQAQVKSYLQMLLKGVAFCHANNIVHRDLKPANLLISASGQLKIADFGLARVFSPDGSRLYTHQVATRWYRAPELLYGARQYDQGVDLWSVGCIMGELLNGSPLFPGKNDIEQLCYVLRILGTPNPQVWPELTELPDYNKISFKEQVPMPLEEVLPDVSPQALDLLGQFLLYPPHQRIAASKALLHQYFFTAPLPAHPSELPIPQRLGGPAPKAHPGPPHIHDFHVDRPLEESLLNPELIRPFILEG
Sequence of CDK20/Cyclin H (P51946 whole entry partner): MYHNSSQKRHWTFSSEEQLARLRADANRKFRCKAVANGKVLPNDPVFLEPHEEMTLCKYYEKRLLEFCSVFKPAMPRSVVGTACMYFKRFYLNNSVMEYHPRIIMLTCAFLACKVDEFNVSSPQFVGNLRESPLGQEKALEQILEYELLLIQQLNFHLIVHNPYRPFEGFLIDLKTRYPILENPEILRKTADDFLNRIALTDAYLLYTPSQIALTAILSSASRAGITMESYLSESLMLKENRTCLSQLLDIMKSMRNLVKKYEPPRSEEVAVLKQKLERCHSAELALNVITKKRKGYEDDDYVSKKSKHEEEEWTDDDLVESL
Sequence of CDK12/Cyclin K (Q9NYV4 1-1481 isoform Q9NYV4-2): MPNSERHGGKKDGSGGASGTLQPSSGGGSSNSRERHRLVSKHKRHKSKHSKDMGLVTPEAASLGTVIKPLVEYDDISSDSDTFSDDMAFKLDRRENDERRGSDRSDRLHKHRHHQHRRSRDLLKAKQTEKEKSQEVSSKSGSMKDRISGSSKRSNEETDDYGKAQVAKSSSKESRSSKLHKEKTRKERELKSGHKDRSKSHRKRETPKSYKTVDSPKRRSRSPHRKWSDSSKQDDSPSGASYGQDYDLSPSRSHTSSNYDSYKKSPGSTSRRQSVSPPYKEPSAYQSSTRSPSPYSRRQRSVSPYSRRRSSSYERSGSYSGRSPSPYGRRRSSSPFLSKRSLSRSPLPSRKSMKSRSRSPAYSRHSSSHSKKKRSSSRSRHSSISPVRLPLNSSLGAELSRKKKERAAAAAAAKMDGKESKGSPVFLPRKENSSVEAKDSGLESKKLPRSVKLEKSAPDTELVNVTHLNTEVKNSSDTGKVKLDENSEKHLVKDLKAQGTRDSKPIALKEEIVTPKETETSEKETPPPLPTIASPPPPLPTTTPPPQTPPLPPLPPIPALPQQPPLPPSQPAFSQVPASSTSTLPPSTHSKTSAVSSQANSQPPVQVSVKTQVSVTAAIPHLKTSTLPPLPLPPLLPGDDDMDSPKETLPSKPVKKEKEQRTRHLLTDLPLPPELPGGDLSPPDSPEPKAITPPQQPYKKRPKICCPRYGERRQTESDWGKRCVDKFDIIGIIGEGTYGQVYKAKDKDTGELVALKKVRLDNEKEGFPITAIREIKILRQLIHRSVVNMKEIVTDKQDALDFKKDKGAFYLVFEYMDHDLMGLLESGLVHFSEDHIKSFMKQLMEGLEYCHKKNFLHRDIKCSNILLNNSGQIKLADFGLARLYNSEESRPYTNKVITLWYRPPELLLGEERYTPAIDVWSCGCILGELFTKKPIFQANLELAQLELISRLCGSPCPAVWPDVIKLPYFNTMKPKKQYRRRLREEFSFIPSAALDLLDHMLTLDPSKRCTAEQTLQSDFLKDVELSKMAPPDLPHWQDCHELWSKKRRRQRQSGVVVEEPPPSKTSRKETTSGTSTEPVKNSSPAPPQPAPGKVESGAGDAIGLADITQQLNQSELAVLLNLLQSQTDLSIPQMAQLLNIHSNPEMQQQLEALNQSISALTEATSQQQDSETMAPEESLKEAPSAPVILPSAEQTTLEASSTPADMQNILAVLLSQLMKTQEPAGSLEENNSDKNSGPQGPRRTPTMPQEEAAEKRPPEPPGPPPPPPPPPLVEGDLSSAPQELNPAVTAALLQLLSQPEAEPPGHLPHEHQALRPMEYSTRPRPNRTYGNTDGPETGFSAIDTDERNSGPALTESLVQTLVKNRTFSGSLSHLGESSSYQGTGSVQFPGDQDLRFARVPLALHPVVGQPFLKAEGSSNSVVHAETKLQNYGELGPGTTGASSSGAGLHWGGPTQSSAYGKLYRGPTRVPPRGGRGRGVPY
Sequence of CDK12/Cyclin K (O75909 whole entry partner): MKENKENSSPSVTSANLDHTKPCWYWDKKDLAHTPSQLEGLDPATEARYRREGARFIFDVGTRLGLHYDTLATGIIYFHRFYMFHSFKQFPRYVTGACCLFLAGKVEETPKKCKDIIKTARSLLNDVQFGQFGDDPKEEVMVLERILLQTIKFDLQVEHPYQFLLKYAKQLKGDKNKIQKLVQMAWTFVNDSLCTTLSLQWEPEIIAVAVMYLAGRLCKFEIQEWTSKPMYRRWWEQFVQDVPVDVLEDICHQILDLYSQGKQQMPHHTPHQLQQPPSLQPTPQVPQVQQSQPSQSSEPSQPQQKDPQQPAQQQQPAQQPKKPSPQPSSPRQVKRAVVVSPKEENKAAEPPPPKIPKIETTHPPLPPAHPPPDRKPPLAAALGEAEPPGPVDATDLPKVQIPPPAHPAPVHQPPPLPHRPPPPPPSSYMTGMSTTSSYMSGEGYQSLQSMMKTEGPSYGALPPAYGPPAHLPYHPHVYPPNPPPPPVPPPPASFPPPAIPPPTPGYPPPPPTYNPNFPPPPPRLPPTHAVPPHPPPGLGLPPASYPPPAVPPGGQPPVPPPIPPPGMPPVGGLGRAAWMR
Sequence of CDK9/Cyclin K (P50750 whole entry): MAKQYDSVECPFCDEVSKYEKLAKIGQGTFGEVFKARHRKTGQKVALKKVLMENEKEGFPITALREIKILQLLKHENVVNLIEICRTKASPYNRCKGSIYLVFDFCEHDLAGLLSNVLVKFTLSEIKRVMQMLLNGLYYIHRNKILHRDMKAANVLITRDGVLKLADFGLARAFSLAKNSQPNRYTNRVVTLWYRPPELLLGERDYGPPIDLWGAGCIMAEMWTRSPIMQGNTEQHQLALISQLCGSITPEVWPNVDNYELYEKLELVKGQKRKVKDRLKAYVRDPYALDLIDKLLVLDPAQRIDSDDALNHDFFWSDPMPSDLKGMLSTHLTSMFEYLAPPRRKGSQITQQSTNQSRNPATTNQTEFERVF
Sequence of CDK9/Cyclin K (O75909 whole entry partner): as the sequence (O75909 whole entry partner) above
Sequence of CDK19/Cyclin C (Q9BWU1 whole entry): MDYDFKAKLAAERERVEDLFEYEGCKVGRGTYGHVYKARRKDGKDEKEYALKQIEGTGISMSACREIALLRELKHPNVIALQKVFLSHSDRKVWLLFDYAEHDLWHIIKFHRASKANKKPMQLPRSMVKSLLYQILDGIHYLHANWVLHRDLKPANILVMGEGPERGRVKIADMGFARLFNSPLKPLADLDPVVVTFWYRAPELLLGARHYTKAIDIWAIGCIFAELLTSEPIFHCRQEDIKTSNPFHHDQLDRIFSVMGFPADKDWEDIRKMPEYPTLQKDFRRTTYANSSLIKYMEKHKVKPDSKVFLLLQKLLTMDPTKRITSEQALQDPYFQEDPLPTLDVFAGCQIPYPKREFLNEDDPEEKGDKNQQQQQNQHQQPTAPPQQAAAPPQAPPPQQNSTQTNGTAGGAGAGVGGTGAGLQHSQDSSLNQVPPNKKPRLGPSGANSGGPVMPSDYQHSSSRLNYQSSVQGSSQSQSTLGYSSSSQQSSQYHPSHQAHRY
Sequence of CDK19/Cyclin C (P24863 whole entry partner): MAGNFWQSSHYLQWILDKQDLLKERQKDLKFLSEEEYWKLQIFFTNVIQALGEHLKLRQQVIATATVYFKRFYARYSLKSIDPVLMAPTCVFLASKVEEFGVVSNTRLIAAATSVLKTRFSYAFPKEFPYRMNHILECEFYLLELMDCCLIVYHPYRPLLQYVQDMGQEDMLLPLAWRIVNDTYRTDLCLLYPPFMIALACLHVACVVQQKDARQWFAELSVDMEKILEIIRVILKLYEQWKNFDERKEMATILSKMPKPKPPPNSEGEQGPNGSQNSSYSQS
Sequence of CDK7 (P50613 whole entry): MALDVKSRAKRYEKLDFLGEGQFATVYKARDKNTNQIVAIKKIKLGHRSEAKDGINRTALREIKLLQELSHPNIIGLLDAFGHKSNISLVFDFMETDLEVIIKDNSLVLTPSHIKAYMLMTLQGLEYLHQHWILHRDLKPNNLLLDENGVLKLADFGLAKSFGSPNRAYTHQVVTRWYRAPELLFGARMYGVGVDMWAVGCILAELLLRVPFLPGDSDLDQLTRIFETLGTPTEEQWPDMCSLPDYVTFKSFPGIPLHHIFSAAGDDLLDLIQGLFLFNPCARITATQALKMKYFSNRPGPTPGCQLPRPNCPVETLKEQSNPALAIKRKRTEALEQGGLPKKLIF
Sequence of CDK3/Cyclin E1 (Q00526 whole entry): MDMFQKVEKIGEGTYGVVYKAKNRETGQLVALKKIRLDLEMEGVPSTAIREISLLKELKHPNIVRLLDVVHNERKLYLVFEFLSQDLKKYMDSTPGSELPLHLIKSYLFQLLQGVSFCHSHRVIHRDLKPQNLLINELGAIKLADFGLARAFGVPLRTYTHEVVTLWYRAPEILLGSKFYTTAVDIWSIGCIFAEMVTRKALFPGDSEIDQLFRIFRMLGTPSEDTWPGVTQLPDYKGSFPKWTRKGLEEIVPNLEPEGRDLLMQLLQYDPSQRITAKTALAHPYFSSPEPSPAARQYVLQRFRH
Sequence of CDK3/Cyclin E1 (P24864 whole entry partner): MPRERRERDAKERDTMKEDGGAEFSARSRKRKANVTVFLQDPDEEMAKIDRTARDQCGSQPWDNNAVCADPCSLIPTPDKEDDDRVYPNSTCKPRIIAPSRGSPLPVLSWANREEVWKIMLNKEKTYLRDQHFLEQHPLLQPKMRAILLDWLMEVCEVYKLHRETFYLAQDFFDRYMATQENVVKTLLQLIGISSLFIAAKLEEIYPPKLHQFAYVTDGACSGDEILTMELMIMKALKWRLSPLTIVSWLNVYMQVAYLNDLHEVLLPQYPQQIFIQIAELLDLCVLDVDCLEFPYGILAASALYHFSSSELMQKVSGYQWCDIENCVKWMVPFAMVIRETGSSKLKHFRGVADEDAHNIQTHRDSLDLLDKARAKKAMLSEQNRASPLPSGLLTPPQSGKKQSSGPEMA

In the case of `O=C(Nc1c[nH]nc1-c1ccccn1)c1nn(C2CCNCC2)cc1Cl` [BDP5290], the “Inhibition at 10µM (%) Replicate 1” value [1] is reported as 19.1%, the “Inhibition at 10µM (%) Replicate 2” value [1] is reported as 12.1% and the “Inhibition at 10µM (%) Average” value ([1]; average of replicates) is reported as 15.6%. The “Inhibition at 10µM (%) Replicate 1” value [2] was -7.9%, the “Inhibition at 10µM (%) Replicate 2” value [2] was 7.7% and the “Inhibition at 10µM (%) Average” value ([2]; average of replicates) was -0.109%. The “Inhibition at 10µM (%) Replicate 1” value [3] was 4.4%, the “Inhibition at 10µM (%) Replicate 2” value [3] was 3.4% and the “Inhibition at 10µM (%) Average” value ([3]; average of replicates) was 3.9%. The “Inhibition at 10µM (%) Replicate 1” value [4] was 13.2%, the “Inhibition at 10µM (%) Replicate 2” value [4] was 14.4% and the “Inhibition at 10µM (%) Average” value ([4]; average of replicates) was 13.8%. The “Inhibition at 10µM (%) Replicate 1” value [5] was 7.9%, the “Inhibition at 10µM (%) Replicate 2” value [5] was -3.3% and the “Inhibition at 10µM (%) Average” value ([5]; average of replicates) was 2.3%. For the same compound, the “Inhibition at 10µM (%) Replicate 1” value [6] was 5.5%, the “Inhibition at 10µM (%) Replicate 2” value [6] was 5.4% and the “Inhibition at 10µM (%) Average” value ([6]; average of replicates) was 5.5%. The “Inhibition at 10µM (%) Replicate 1” value ([7]; CDK7, 10µM) was 9.8%, the “Inhibition at 10µM (%) Replicate 2” value ([7]; CDK7, 10µM) was 16.0% and the “Inhibition at 10µM (%) Average” value ([7]; CDK7, 10µM, average of replicates) was 12.9%. The “Inhibition at 10µM (%) Replicate 1” value ([8]; 10µM) was 6.1%, the “Inhibition at 10µM (%) Replicate 2” value ([8]; 10µM) was -10.6% and the “Inhibition at 10µM (%) Average” value ([8]; 10µM, average of replicates) was -2.2%. For the same compound, the “Inhibition at 10µM (%) Replicate 1” value [9] was 12.5%, the “Inhibition at 10µM (%) Replicate 2” value [9] was 29.1% and the “Inhibition at 10µM (%) Average” value ([9]; average of replicates) was 20.8%. The “Inhibition at 10µM (%) Replicate 1” value ([10]; 10µM) was -5.6%, the “Inhibition at 10µM (%) Replicate 2” value ([10]; 10µM) was 5.6% and the “Inhibition at 10µM (%) Average” value ([10]; 10µM, average of replicates) was -0.00201%. The “Inhibition at 10µM (%) Replicate 1” value ([11]; 10µM) was 8.9%, the “Inhibition at 10µM (%) Replicate 2” value ([11]; 10µM) was -3.2% and the “Inhibition at 10µM (%) Average” value ([11]; 10µM, average of replicates) was 2.8%. For the same compound, the “Inhibition at 10µM (%) Replicate 1” value [12] was 6.2%, the “Inhibition at 10µM (%) Replicate 2” value [12] was -2.0% and the “Inhibition at 10µM (%) Average” value ([12]; average of replicates) was 2.1%. The “Inhibition at 10µM (%) Replicate 1” value [13] was 3.0%, the “Inhibition at 10µM (%) Replicate 2” value [13] was -9.6% and the “Inhibition at 10µM (%) Average” value ([13]; average of replicates) was -3.3%. The “Inhibition at 10µM (%) Replicate 1” value [14] was -4.4%, the “Inhibition at 10µM (%) Replicate 2” value [14] was -10.4% and the “Inhibition at 10µM (%) Average” value ([14]; average of replicates) was -7.4%. For the same compound, the “Inhibition at 10µM (%) Replicate 1” value [15] was 8.0%, the “Inhibition at 10µM (%) Replicate 2” value [15] was 6.5% and the “Inhibition at 10µM (%) Average” value ([15]; average of replicates) was 7.2%. For the same compound, the “Inhibition at 10µM (%) Replicate 1” value [16] was 4.2%, the “Inhibition at 10µM (%) Replicate 2” value [16] was -9.2% and the “Inhibition at 10µM (%) Replicate 1” value [17] was 0.247%. The “Inhibition at 10µM (%) Replicate 2” value [17] was 1.8%, the “Inhibition at 10µM (%) Average” value ([17]; average of replicates) was 1.0% and the “Inhibition at 10µM (%) Replicate 1” value [18] was 16.5%. For the same compound, the “Inhibition at 10µM (%) Replicate 2” value [18] was 10.0%, the “Inhibition at 10µM (%) Average” value ([18]; average of replicates) was 13.2% and the “Inhibition at 10µM (%) Replicate 1” value ([19]; CDK20/H, 10µM) was 14.8%. For the same compound, the “Inhibition at 10µM (%) Replicate 2” value ([19]; CDK20/H, 10µM) was 26.9%, the “engagement of CDKs at concentrations up to 10μM” value [20] was “only weakly engaged” and the “Inhibition at 10µM (%) Replicate 1” value ([21]; CDK19/C, 10µM) was 12.8%. The “Inhibition at 10µM (%) Replicate 2” value ([21]; CDK19/C, 10µM) was -7.7%, the “Inhibition at 10µM (%) Average” value ([21]; CDK19/C, 10µM, average of replicates) was 2.6% and the “Inhibition at 10µM (%) Replicate 1” value ([22]; CDK10/L2, 10µM) was 1.9%. For the same compound, the “Inhibition at 10µM (%) Replicate 2” value ([22]; CDK10/L2, 10µM) was 8.8% and the “Inhibition at 10µM (%) Average” value ([22]; CDK10/L2, 10µM, average of replicates) was 5.4%.

For `CCc1cnn2c(NCc3ccc[n+]([O-])c3)cc(N3CCCC[C@H]3CCO)nc12` [Dinaciclib], the inhibition at 10 µM ([7]; CDK7, experiment 1, read-out: Inhibition at 10µM (%)) was 94.8%, the inhibition at 10 µM ([7]; CDK7, experiment 2, read-out: Inhibition at 10µM (%)) was 91.5% and the inhibition at 10 µM ([7]; read-out: Inhibition at 10µM (%), CDK7, average) was 93.1%. For the same compound, the inhibition at 10 µM ([8]; average) was 24.5%, the inhibition at 10 µM ([8]; experiment 1) was 40.6% and the inhibition at 10 µM ([8]; experiment 2) was 8.4%. For the same compound, the inhibition at 10 µM ([10]; average) was 33%, the inhibition at 10 µM ([10]; experiment 1) was 36% and the inhibition at 10 µM ([10]; experiment 2) was 29.9%. The inhibition at 10 µM ([11]; average) was 45.5%, the inhibition at 10 µM ([11]; experiment 1) was 46.1% and the inhibition at 10 µM ([11]; experiment 2) was 45%. It also gave an inhibition at 10 µM ([19]; experiment 1) of 71.7%, an inhibition at 10 µM ([19]; experiment 2) of 78% and an IC50 [23] of 720 nM. For the same compound, the inhibition at 10 µM ([21]; average) was 35.5%, the inhibition at 10 µM ([21]; experiment 1) was 46.2% and the inhibition at 10 µM ([21]; experiment 2) was 24.7%. It also gave an IC50 ([22]; IC50, [Probe 1] 0.5 µM) of 850 nM, an IC50 ([22]; IC50, [Probe 1] 1 µM) of 740 nM and an inhibition at 10 µM ([22]; average) of 74.8%. For the same compound, the inhibition at 10 µM ([22]; experiment 1) was 77.5% and the inhibition at 10 µM ([22]; experiment 2) was 72.2%.
